Assays:
c-KIT = molecular target: T1, c-KIT (Homo sapiens, UniProt P10721); experiment: c-KIT recombinant enzyme kinase assay (AlphaScreen); assay type: biochemical; conditions: 100 ATP, 8 pt
T1 construct: purchased Millipore 14-559K
Method in brief: (§1)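 Substrate 30 nM biotin-GG(EEEEY)10EE; ATP 10 μM (FLT3-ITD, FLT3-D835Y) or 100 μM (c-KIT). Detection: AlphaScreen PY20 kit, 10 μg/mL beads, RT 20 + 60 min. Readout 580 nm; IC50.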

FLT3-ITD = molecular target: T2, FLT3-ITD (Homo sapiens, UniProt P36888); experiment: FLT3-ITD recombinant enzyme kinase assay (AlphaScreen); assay type: biochemical; conditions: 8 pt; read-out: FLT3_ITD 8 pt: IC50
T2 sequence (P36888 1-993): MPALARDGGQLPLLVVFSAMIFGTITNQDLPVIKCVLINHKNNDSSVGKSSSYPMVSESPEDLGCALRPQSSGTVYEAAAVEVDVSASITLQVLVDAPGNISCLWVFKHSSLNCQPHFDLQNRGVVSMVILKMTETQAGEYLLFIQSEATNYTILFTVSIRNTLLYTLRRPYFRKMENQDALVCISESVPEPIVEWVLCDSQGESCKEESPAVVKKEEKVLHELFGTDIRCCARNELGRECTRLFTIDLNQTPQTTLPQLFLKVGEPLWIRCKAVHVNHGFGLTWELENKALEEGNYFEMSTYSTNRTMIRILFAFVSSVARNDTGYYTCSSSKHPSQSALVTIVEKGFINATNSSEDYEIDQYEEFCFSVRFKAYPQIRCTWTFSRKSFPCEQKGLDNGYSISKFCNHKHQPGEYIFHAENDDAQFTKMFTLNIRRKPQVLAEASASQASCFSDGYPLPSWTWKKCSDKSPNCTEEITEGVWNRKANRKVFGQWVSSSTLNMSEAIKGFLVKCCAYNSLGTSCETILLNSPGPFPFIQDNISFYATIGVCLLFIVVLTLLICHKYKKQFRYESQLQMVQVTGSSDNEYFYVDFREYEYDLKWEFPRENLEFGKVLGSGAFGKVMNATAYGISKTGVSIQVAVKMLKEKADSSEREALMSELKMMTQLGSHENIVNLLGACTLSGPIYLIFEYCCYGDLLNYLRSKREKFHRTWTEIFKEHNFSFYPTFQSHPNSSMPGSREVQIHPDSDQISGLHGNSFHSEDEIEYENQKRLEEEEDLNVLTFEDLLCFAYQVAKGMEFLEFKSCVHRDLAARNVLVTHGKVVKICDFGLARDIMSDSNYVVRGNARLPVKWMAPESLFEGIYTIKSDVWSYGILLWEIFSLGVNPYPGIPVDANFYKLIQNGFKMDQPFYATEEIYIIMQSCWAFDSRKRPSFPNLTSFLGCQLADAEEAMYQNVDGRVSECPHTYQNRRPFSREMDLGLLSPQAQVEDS
Method in brief: as §1

T1 sequence (P10721 26-976): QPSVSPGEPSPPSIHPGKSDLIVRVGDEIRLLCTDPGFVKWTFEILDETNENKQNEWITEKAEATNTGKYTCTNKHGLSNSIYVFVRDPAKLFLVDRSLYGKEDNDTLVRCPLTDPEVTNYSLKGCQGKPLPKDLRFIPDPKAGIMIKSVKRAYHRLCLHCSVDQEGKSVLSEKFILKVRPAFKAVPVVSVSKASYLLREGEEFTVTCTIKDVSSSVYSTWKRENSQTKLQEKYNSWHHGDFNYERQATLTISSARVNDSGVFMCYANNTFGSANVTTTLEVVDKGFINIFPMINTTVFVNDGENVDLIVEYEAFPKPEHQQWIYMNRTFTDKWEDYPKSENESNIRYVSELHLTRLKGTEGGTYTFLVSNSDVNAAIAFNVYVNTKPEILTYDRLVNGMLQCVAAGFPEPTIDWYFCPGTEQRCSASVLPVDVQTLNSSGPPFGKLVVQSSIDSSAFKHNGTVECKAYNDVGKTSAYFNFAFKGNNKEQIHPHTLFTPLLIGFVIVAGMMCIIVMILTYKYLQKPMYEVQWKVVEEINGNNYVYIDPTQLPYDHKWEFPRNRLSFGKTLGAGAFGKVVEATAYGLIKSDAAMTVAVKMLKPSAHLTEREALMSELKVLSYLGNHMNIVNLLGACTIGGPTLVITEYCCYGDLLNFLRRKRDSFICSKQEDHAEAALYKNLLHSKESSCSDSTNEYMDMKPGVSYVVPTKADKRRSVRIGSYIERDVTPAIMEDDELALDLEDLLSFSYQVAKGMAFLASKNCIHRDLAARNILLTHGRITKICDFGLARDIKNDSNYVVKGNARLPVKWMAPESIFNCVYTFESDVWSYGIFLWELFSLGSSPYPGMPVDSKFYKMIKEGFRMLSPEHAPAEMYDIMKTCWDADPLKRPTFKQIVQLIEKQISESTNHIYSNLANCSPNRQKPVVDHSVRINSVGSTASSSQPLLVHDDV

Question: How did the IC50 (c-KIT) turn out when Cn1cc(Nc2ncc(-c3ccc(CC(=O)Nc4ccc(C(F)(F)F)nc4)cc3)cn2)cn1 [Compound P-0095, 2-[4-[2-[(1-methylpyrazol-4-yl)amino]pyrimidin-5-yl]phenyl]-N-[6-(trifluoromethyl)-3-pyridyl]acetamide] was run?
Answer: 0.0001 to 10 µM

Question: What about the IC50 (FLT3-ITD) of the same compound?
Answer: 0.0001 to 10 µM

Question: What does the source list for Cn1cnc(Nc2ncc(-c3ccc(CC(=O)Nc4cnc(F)c(C(C)(F)F)c4)cc3)cn2)c1 [Compound P-0168, N-[5-(1,1-difluoroethyl)-6-fluoro-3-pyridyl]-2-[4-[2-[(1-methylimidazol-4-yl)amino]pyrimidin-5-yl]phenyl]acetamide]?
Answer: IC50 (c-KIT): 0.0001 to 10 µM; IC50 (FLT3-ITD): 0.0001 to 10 µM

Question: Which results are given for COc1ccccc1CNC(=O)Cc1ccc(-c2cnc(Nc3cnn(C)c3)nc2)cc1 [Compound P-0160, N-[(2-methoxyphenyl)methyl]-2-[4-[2-[(1-methylpyrazol-4-yl)amino]pyrimidin-5-yl]phenyl]acetamide]?
Answer: IC50 (c-KIT): 0.0001 to 10 µM; IC50 (FLT3-ITD): 0.0001 to 10 µM

Question: Which results are given for COc1ncc(NC(=O)Cc2ccc(-c3cnc(Nc4cn(C)cn4)nc3)cc2)cc1C(F)(F)F [Compound P-0149, N-[6-methoxy-5-(trifluoromethyl)-3-pyridyl]-2-[4-[2-[(1-methylimidazol-4-yl)amino]pyrimidin-5-yl]phenyl]acetamide]?
Answer: IC50 (c-KIT): 0.0001 to 10 µM; IC50 (FLT3-ITD): 0.0001 to 10 µM

Question: For N#Cc1cc(-c2cc3cc(-c4ccc(CC(=O)Nc5ccnc(C(F)(F)F)c5)nc4)cnc3[nH]2)ccn1 [Compound P-0182, 2-[5-[2-(2-cyano-4-pyridyl)-1H-pyrrolo[2,3-b]pyridin-5-yl]-2-pyridyl]-N-[2-(trifluoromethyl)-4-pyridyl]acetamide], which IC50 (c-KIT) is on record?
Answer: 0.0001 to 10 µM

Question: And the IC50 (FLT3-ITD)?
Answer: 0.0001 to 10 µM

Question: With Cn1cc(Nc2ncc(-c3ccc(CC(=O)NCc4cncc(C(F)(F)F)c4)cc3)cn2)cn1 [Compound P-0161, 2-[4-[2-[(1-methylpyrazol-4-yl)amino]pyrimidin-5-yl]phenyl]-N-[[5-(trifluoromethyl)-3-pyridyl]methyl]acetamide] as the compound, how does the IC50 (c-KIT) read?
Answer: 0.0001 to 10 µM

Question: What about the IC50 (FLT3-ITD) of the same compound?
Answer: 0.0001 to 10 µM

Question: Which results are given for Cn1cc(Nc2ncc(-c3ccc(CC(=O)Nc4cnc(Cl)c(C(F)(F)F)c4)c(F)c3)cn2)cn1 [Compound P-0092, N-[6-chloro-5-(trifluoromethyl)-3-pyridyl]-2-[2-fluoro-4-[2-[(1-methylpyrazol-4-yl)amino]pyrimidin-5-yl]phenyl]acetamide]?
Answer: IC50 (c-KIT): 0.0001 to 10 µM; IC50 (FLT3-ITD): 0.0001 to 10 µM

Question: Cn1cc(Nc2ncc(-c3ccc(CC(=O)NCc4ncccc4C(F)(F)F)cc3)cn2)cn1 [Compound P-0159, 2-[4-[2-[(1-methylpyrazol-4-yl)amino]pyrimidin-5-yl]phenyl]-N-[[3-(trifluoromethyl)-2-pyridyl]methyl]acetamide] was tested. Which IC50 (c-KIT) did it give?
Answer: 0.0001 to 10 µM

Question: What about the IC50 (FLT3-ITD) of the same compound?
Answer: 0.0001 to 10 µM

Question: Which results are given for Cn1cc(Nc2ncc(-c3ccc(CC(=O)Nc4ccnc(C(F)(F)F)n4)cc3)cn2)cn1 [Compound P-0137, 2-[4-[2-[(1-methylpyrazol-4-yl)amino]pyrimidin-5-yl]phenyl]-N-[2-(trifluoromethyl)pyrimidin-4-yl]acetamide]?
Answer: IC50 (c-KIT): 0.0001 to 10 µM; IC50 (FLT3-ITD): 0.0001 to 10 µM

Question: How did the IC50 (c-KIT) turn out when Cn1cc(Nc2ncc(-c3ccc(CC(=O)Nc4ccnc(C5CC5)c4)cc3)cn2)cn1 [Compound P-0097, N-(2-cyclopropyl-4-pyridyl)-2-[4-[2-[(1-methylpyrazol-4-yl)amino]pyrimidin-5-yl]phenyl]acetamide] was run?
Answer: 0.0001 to 10 µM

Question: And the IC50 (FLT3-ITD)?
Answer: 0.0001 to 10 µM

Question: How did the IC50 (c-KIT) turn out when Cn1cc(Nc2ncc(-c3ccc(CC(=O)Nc4ccc(C(C)(C)C)nc4)cc3)cn2)cn1 [Compound P-0143, N-(6-tert-butyl-3-pyridyl)-2-[4-[2-[(1-methylpyrazol-4-yl)amino]pyrimidin-5-yl]phenyl]acetamide] was run?
Answer: 0.0001 to 10 µM

Question: What about the IC50 (FLT3-ITD) of the same compound?
Answer: 0.0001 to 10 µM

Question: Which results are given for Cn1cc(Nc2ncc(-c3ccc(CC(=O)Nc4ccc(C(F)(F)F)cn4)c(F)c3)cn2)cn1 [Compound P-0106, 2-[2-fluoro-4-[2-[(1-methylpyrazol-4-yl)amino]pyrimidin-5-yl]phenyl]-N-[5-(trifluoromethyl)-2-pyridyl]acetamide]?
Answer: IC50 (c-KIT): 0.0001 to 10 µM; IC50 (FLT3-ITD): 0.0001 to 10 µM

Question: For COc1ccc(-c2cc3cc(-c4ccc(CC(=O)Nc5cncc(C(F)(F)F)c5)cc4F)cnc3[nH]2)cn1 [Compound P-0196, 2-[3-fluoro-4-[2-(6-methoxy-3-pyridyl)-1H-pyrrolo[2,3-b]pyridin-5-yl]phenyl]-N-[5-(trifluoromethyl)-3-pyridyl]acetamide], which IC50 (c-KIT) is on record?
Answer: 0.0001 to 10 µM

Question: What about the IC50 (FLT3-ITD) of the same compound?
Answer: 0.0001 to 10 µM

Question: Cn1cc(Nc2ncc(-c3ccc(CC(=O)Nc4ccc(C(C)(C)C#N)nc4)cc3)cn2)cn1 [Compound P-0146, N-[6-(1-cyano-1-methyl-ethyl)-3-pyridyl]-2-[4-[2-[(1-methylpyrazol-4-yl)amino]pyrimidin-5-yl]phenyl]acetamide] was tested. Which IC50 (c-KIT) did it give?
Answer: 0.0001 to 10 µM

Question: And the IC50 (FLT3-ITD)?
Answer: 0.0001 to 10 µM

Question: For Cn1cc(Nc2ncc(-c3ccc(CC(=O)Nc4cc(C(F)(F)F)ncn4)cc3)cn2)cn1 [Compound P-0135, 2-[4-[2-[(1-methylpyrazol-4-yl)amino]pyrimidin-5-yl]phenyl]-N-[6-(trifluoromethyl)pyrimidin-4-yl]acetamide], which IC50 (c-KIT) is on record?
Answer: 0.0001 to 10 µM

Question: What about the IC50 (FLT3-ITD) of the same compound?
Answer: 0.0001 to 10 µM

Question: What does the source list for O=C(Cc1ccc(-c2cnc3[nH]c(-c4ccccc4)cc3c2)cn1)Nc1ccnc(C(F)(F)F)c1 [Compound P-0005, 2-[5-(2-phenyl-1H-pyrrolo[2,3-b]pyridin-5-yl)-2-pyridyl]-N-[2-(trifluoromethyl)-4-pyridyl]acetamide]?
Answer: IC50 (c-KIT): 0.0001 to 10 µM; IC50 (FLT3-ITD): 0.0001 to 10 µM

Question: For Cn1cc(Nc2ncc(-c3ccc(CC(=O)NCc4cccnc4)cc3)cn2)cn1 [Compound P-0132, 2-[4-[2-[(1-methylpyrazol-4-yl)amino]pyrimidin-5-yl]phenyl]-N-(3-pyridylmethyl)acetamide], which IC50 (c-KIT) is on record?
Answer: 0.0001 to 10 µM

Question: And the IC50 (FLT3-ITD)?
Answer: 0.0001 to 10 µM

Question: What does the source list for Cn1cc(Nc2ncc(-c3ccc(CC(=O)Nc4cccc(OC(F)(F)F)c4)cc3)cn2)cn1 [Compound P-0157, 2-[4-[2-[(1-methylpyrazol-4-yl)amino]pyrimidin-5-yl]phenyl]-N-[3-(trifluoromethoxy)phenyl]acetamide]?
Answer: IC50 (c-KIT): 0.0001 to 10 µM; IC50 (FLT3-ITD): 0.0001 to 10 µM

Question: Cn1cnc(Nc2ncc(-c3ccc(CC(=O)Nc4cc(C(C)(F)F)ccn4)cc3)cn2)c1 [Compound P-0169, N-[4-(1,1-difluoroethyl)-2-pyridyl]-2-[4-[2-[(1-methylimidazol-4-yl)amino]pyrimidin-5-yl]phenyl]acetamide] was tested. Which IC50 (c-KIT) did it give?
Answer: 0.0001 to 10 µM

Question: What about the IC50 (FLT3-ITD) of the same compound?
Answer: 0.0001 to 10 µM

Question: For Cn1cc(Nc2ncc(-c3ccc(CC(=O)Nc4cc(C(F)(F)F)ccn4)cc3)cn2)cn1 [Compound P-0139, 2-[4-[2-[(1-methylpyrazol-4-yl)amino]pyrimidin-5-yl]phenyl]-N-[4-(trifluoromethyl)-2-pyridyl]acetamide], which IC50 (c-KIT) is on record?
Answer: 0.0001 to 10 µM

Question: What about the IC50 (FLT3-ITD) of the same compound?
Answer: 0.0001 to 10 µM

Question: What does the source list for CCc1cncc(NC(=O)Cc2ccc(-c3cnc(Nc4cnn(C)c4)nc3)cc2F)c1 [Compound P-0111, N-(5-ethyl-3-pyridyl)-2-[2-fluoro-4-[2-[(1-methylpyrazol-4-yl)amino]pyrimidin-5-yl]phenyl]acetamide]?
Answer: IC50 (c-KIT): 0.0001 to 10 µM; IC50 (FLT3-ITD): 0.0001 to 10 µM

Question: What does the source list for COc1nn(C[C@H](C)O)cc1Nc1ncc(-c2ccc(CC(=O)Nc3cnc(C)c(C(F)(F)F)c3)cc2)cn1 [Compound P-0180, 2-[4-[2-[[1-[(2S)-2-hydroxypropyl]-3-methoxy-pyrazol-4-yl]amino]pyrimidin-5-yl]phenyl]-N-[6-methyl-5-(trifluoromethyl)-3-pyridyl]acetamide]?
Answer: IC50 (c-KIT): 0.0001 to 10 µM; IC50 (FLT3-ITD): 0.0001 to 10 µM

Question: What does the source list for Cn1cc(Nc2ncc(-c3ccc(CC(=O)Nc4cccc(C(F)(F)F)c4)cc3)cn2)cn1 [Compound P-0141, 2-[4-[2-[(1-methylpyrazol-4-yl)amino]pyrimidin-5-yl]phenyl]-N-[3-(trifluoromethyl)phenyl]acetamide]?
Answer: IC50 (c-KIT): 0.0001 to 10 µM; IC50 (FLT3-ITD): 0.0001 to 10 µM

Question: How did the IC50 (c-KIT) turn out when O=C(Cc1ccc(-c2cnc3[nH]c(-c4ccc(N5CCOCC5)nc4)cc3c2)c(F)c1)Nc1cncc(C(F)(F)F)c1 [Compound P-0198, 2-[3-fluoro-4-[2-(6-morpholino-3-pyridyl)-1H-pyrrolo[2,3-b]pyridin-5-yl]phenyl]-N-[5-(trifluoromethyl)-3-pyridyl]acetamide] was run?
Answer: 0.0001 to 10 µM

Question: What about the IC50 (FLT3-ITD) of the same compound?
Answer: 0.0001 to 10 µM

Question: With Cn1cc(Nc2ncc(-c3ccc(CC(=O)Nc4cnc(F)c(C(C)(F)F)c4)cc3)cn2)cn1 [Compound P-0104, N-[5-(1,1-difluoroethyl)-6-fluoro-3-pyridyl]-2-[4-[2-[(1-methylpyrazol-4-yl)amino]pyrimidin-5-yl]phenyl]acetamide] as the compound, how does the IC50 (c-KIT) read?
Answer: 0.0001 to 10 µM

Question: What about the IC50 (FLT3-ITD) of the same compound?
Answer: 0.0001 to 10 µM

— US10160747B2, “Compounds and methods for kinase modulation, and indications therefor” (Plexxikon Inc., priority 2016, dated 2018)
